Results published in paper PMC8594528 (Proceedings of the National Academy of Sciences of the …, 2021).

How the values were obtained:
GSK-3β [1] = target: T1, GSK-3β (Homo sapiens, UniProt P49841); experiment: in vitro kinase assay with recombinant GSK-3β and immunoprecipitated N protein as substrate, single concentration ([…]); assay type: biochemical
T1 construct: gene GSK3B; human recombinant GSK-3β

GSK-3β [2] = target: T1, GSK-3β; experiment: in vitro kinase assay with recombinant GSK-3β; tau or immunoprecipitated N protein as substrate, gel mobility shift; assay type: biochemical

T1 sequence (P49841 whole entry): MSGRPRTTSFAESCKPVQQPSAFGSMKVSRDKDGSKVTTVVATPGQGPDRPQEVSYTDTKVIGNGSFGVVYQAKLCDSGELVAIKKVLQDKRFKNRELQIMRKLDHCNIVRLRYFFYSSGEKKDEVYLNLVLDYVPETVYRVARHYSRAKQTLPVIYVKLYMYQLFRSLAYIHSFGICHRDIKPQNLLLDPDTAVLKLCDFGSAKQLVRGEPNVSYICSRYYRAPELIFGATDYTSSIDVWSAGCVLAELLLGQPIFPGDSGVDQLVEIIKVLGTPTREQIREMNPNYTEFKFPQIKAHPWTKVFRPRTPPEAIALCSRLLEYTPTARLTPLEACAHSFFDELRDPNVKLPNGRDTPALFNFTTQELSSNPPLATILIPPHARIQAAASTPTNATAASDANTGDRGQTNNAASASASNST

SMILES | in vitro kinase assay with recombinant GSK-3β and immunoprecipitated N protein a (GSK-3β [1]) [µM] | in vitro kinase assay with recombinant GSK-3β; tau or immunoprecipitated N prote (GSK-3β [2]) [µM]
Cc1c[nH]c(-c2cnc(NCCNc3ccc(C#N)cn3)nc2-c2ccc(Cl)cc2Cl)n1 [CHIR99021] | 2 | –
Cn1cc(C2=C(c3cn(C4CCN(Cc5ccccn5)CC4)c4ccccc34)C(=O)NC2=O)c2ccccc21 [Enzastaurin] | – | 0.5
